One data set deals with Nrf2. Description: Neh2-Luciferase reporter assay for Nrf2 activation in BV2 cells. It counts as cell-based. To be noted: for activity of intracellular Nrf2 (luciferase): 10 μM, 24 h incubation, BV2 cells. As for the experimental part:
BV2 cells were transfected with Neh2-Luciferase reporter gene plasmid for 6 h, replaced a normal serum-containing medium and cultured for 24 h, then incubated with drug for 24 h, and treated with Reporter Lysis Buffer for 20 min. The Reporter Lysis Buffer was added to a 96-well plate, and the activity of luciferase was measured.
In FIGS. 1A and 1B, mouse primary microglia are pre-incubated with 1 μM or 5 μM of test compounds for 3 hours, then stimulated with LPS for 5 hours, and the protein content of pro-inflammatory factor TNF-α is determined by ELISA method. In FIG. 1C, the activations of the compounds on Nrf2 are tested by Luciferase Reporter Assay.

Data set [1] has as its system rats with tMCAO. The experiment in a line: Infarct volume (TTC staining) in rats with transient middle cerebral artery occlusion (tMCAO). The class given is in vivo, rat. To be noted: administrated at 4 h post-ischemia and again at 24 h, 1 mg/kg (edaravone 3 mg/kg), determined 48 h post-ischemia. The protocol: (§1) Experimental method: 75 SD male rats weighing 300±20 g were raised under the condition of 25° C. and relative humidity of 60% to 75% for 1 week for experiment. Rats were randomized into 5 groups: sham group, vehicle group, drug administration group at 24 h after ischemia, drug administration group at 6 h after ischemia, drug administration group at 4 h after ischemia, respectively, with 15 animals in each group.
(§2) Establishment of transient middle cerebral artery occlusion (tMCAO) rat model: The rats were anesthetized by intraperitoneal injection of chloral hydrate, and lying on an operating table with limbs fixed with string. […] ECA was ligated and cut off, ICA was clamped at the distal end with an arterial clip, and then a small opening was cut at the intersection of ECA and ICA near the ECA. A nylon thread with paraffin coated on one end was inserted from the small cut opening into the internal carotid artery at the intersection of the internal and external carotid arteries and further into the anterior cerebral artery at the proximal end, to block the blood supply to the middle cerebral artery on this side. At 120 minutes after ischemia, the nylon thread was withdrawn at the incision of the external carotid artery to achieve the reperfusion of the middle cerebral artery. The room temperature during surgery was controlled at 25 to 27° C.
(§3) Administration method: administrating after surgery with a concentration of 1 mg/kg. Drug administration group at 4 h after ischemia was administrated at 4 h after ischemia, and once again after 24 h. Drug administration group at 6 h after ischemia was administrated at 6 h after ischemia, and once again after 24 h. Drug administration group at 24 h after ischemia was administrated once at 24 h after ischemia.
(§4) After the time window for administration of 13 was determined, administration at 4 hour post-ischemia was selected as the subsequent testing time point. 95 SD male rats were randomized into 7 groups: sham group, vehicle group, NBP group, Telm group, NBP+Telm group, 13 group and edaravone group, respectively. The surgical procedure was as described above, NBP (1 mg/kg), Telm (1 mg/kg), NBP (1 mg/kg)+Telm (1 mg/kg), 13 (1 mg/kg) and edaravone (3 mg/kg) were administrated at 4 hour post-ischemia, and once again at 24 h, respectively. The infarct volume and neurobehavioral score were determined at 48 h post-ischemia.
At 48 h post-ischemia, the rats were anesthetized with pentobarbital sodium, decapitated to get brain quickly, olfactory bulb, cerebellum and lower brain stem were removed, and coronal was cut into 6 slices. Then the brain slices were placed in the solution containing 4% TTC and 1 mol/L of K2HPO4, incubated at 37° C. for 30 min in the dark, during which the brain slices were flipped every 7 to 8 min. […] Images were taken after staining, and the infarct volume was calculated using an image analysis software. The percentage of infarct volume is calculated by the following formula: infarct area/total brain cross-sectional area×100%.
(§5) The experimental method was manipulated as described in 2. At 30 min before the administration of I3, rats were intraperitoneally injected with 20 mg/kg of AMPK inhibitor Compound C, and the volume of the ipsilateral hemisphere infarct and the neurobehavioral score were determined at 48 h post-ischemia. Western blot analysis was performed on ischemic brain tissue to determine the content of phosphorylated AMPK (p-AMPK) in the cerebral cortex at the infarct side.
(§6) In FIG. 2, tMCAO models are established in male rats of 260 to 280 g (thread embolism is pulled out from the rats after 2 hour ischemia, resulting in reperfusion), 13 compound (1 mg/kg) is intravenously injected at 4 h post-ischemia, and intravenously injected again at 24 h post-ischemia. […]

Data set [2] concerns rats with tMCAO. Description: Neurobehavioral function score in tMCAO rats. The class given is in vivo, rat. Particulars: tMCAO rats, comparison groups, administrated at 4 h post-ischemia and again at 24 h; 1 mg/kg (edaravone 3 mg/kg); scored 48 h. The protocol: as §1, §2, §3, §4
The neurobehavioral function score of tMCAO rats were scored at 48 h after ischemia. Criteria for scoring is as follows: 0 point, no symptoms of nerve damage; 1 point, inability of fully extending forepaw at the healthy side; 2 points, circling to the healthy side; 3 points, tilting toward the healthy side; 4 points, inability of spontaneous walking and losing consciousness.
as §5, §6

`CCCCC(OC(C)=O)c1ccccc1C(=O)OCCCCOC(=O)c1ccccc1-c1ccc(Cn2c(CCC)nc3c(C)cc(-c4nc5ccccc5n4C)cc32)cc1` (centres unmarked) [I2, 4-O-{2-[(1-acetoxyl)n-pentyl]benzoyl}butanediol telmisartan ester] came in with a melting point of 83 °C. On to `CCCCC(OC(C)=O)c1ccccc1C(=O)OCCCCCOC(=O)c1ccccc1-c1ccc(Cn2c(CCC)nc3c(C)cc(-c4nc5ccccc5n4C)cc32)cc1` (centres unmarked) [I4, 5-O-{2-[(1-acetoxyl)n-pentyl]benzoyl}pentanediol telmisartan ester], for which the melting point fell in the range of 78 to 79 °C. `CCCCC(OC(C)=O)c1ccccc1C(=O)OCCCCCCOC(=O)c1ccccc1-c1ccc(Cn2c(CCC)nc3c(C)cc(-c4nc5ccccc5n4C)cc32)cc1` (centres unmarked) [I5, 6-O-{2-[(1-acetoxyl)n-pentyl]benzoyl}hexanediol telmisartan ester] yielded a melting point of 82 to 83 °C. On the same count and under the same terms, the same measure for `CCCCC(OC(C)=O)c1ccccc1C(=O)OCCCCCCCCOC(=O)c1ccccc1-c1ccc(Cn2c(CCC)nc3c(C)cc(-c4nc5ccccc5n4C)cc32)cc1` (centres unmarked) [I6, 8-O-{2-[(1-acetoxyl)n-pentyl]benzoyl}octanediol telmisartan ester]: 83 to 84 °C.

Turning to `CCCCC(OC(C)=O)c1ccccc1C(=O)NCCCCCCNC(=O)c1ccccc1-c1ccc(Cn2c(CCC)nc3c(C)cc(-c4nc5ccccc5n4C)cc32)cc1` (centres unmarked) [I7, 6-N-{2-[(1-acetoxyl)n-pentyl]benzoyl}hexanediamine telmisartan amide], the melting point was in the range of 96 to 98 °C. For the same molecule, the “activity of intracellular Nrf2 (luciferase)” value in the data set on Nrf2 is “significantly activate the activity of intracellular Nrf2”. `CCCCC(OC(C)=O)c1ccccc1C(=O)NCCCCNC(=O)c1ccccc1-c1ccc(Cn2c(CCC)nc3c(C)cc(-c4nc5ccccc5n4C)cc32)cc1` (centres unmarked) [I8, 4-N-{2-[(1-acetoxyl)n-pentyl]benzoyl}butanediamine telmisartan amide] came in with a melting point of 97 to 99 °C. Also, the “activity of intracellular Nrf2 (luciferase)” value in the data set on Nrf2 is “significantly activate the activity of intracellular Nrf2”. As to `CCCCc1nc(C)c(C(=O)NCCCCCCCCNC(=O)c2ccccc2C(CCCC)OC(C)=O)n1Cc1ccc(-c2ccccc2-c2nnn[nH]2)cc1` (centres unmarked) [I17], the melting point lay in the range of 197 to 199 °C.

Regarding `CCCCC1OC(=O)c2ccccc21` (centres unmarked) [NBP, Butylphthalide], in the data set with rats with tMCAO [1], the “Infarction rate (%)” value was determined as 20.99%. Further, in the data set with rats with tMCAO [2], the Neurobehavioral score turned out to be 2.7.

For the molecule `Cc1c(-c2cnccn2)ssc1=S` [Oltipraz, reference compound], the “activation of Nrf2” value with Nrf2 (concentration not given) was “significantly promote the activation of Nrf2”. In the case of `CCCc1nc2c(C)cc(-c3nc4ccccc4n3C)cc2n1Cc1ccc(-c2ccccc2C(=O)O)cc1` [Telm, Telmisartan], in the data set with rats with tMCAO [1], the “Infarction rate (%)” value was found to be 11.57%. In addition, in the data set on rats with tMCAO [2], the Neurobehavioral score came to 1.

(Values after patent publication US11028073B2, “Butylphthalide-telmisartan hybrids, preparation method and application thereof” (GUANGDONG LONGFU MEDICINE CO., LTD., priority 2017, dated 2021).)
